Assay results reported in patent US10538555B2, “Macrocyclic inhibitors of the PD-1/PD-L1 and CD80(B7-1)/PD-L1 protein/protein interactions” (BRISTOL-MYERS SQUIBB COMPANY, priority 2014, dated 2020).
Where a SMILES comes first, the peptide text is derived from it. Bridges are numbered along the chain shown (N, C = ends). [ ]: non-standard residue; d: D form. ξ: configuration not given here. Trp(1-CH2COOH) = N[C@@H](Cc1cn(CC(=O)O)c2ccccc12)C(=O)O; Hyp = O=C(O)[C@@H]1C[C@@H](O)CN1; NMeNle = CCCC[C@H](NC)C(=O)O; NMeA = CN[C@@H](C)C(=O)O; Orn = NCCC[C@H](N)C(=O)O; Dab = NCC[C@H](N)C(=O)O; Dap = NC[C@H](N)C(=O)O; ξP = O=C(O)C1CCCN1

These molecules were tested against T1, Human PD-L1/PD-1 (Homo sapiens, UniProt Q9NZQ7) (assay: HTRF Human PD-L1/PD-1 binding assay (PD-1-Ig/PD-L1-His)). Conditions: PD-L1-His 10 nM, PD-1-Ig 20 nM; class symbol; read-out: HTRF Human PD-L1/PD-1 Binding Assay IC50 Range.
T1 construct: TVMV protease cleavage site (C); made in house; host or cells: HEK293T cells
In short: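 Competition of macrocyclic peptides for PD-1/PD-L1 binding measured by HTRF in dPBS containing 0.1% BSA and 0.05% Tween-20. Compound and PD-L1-His (10 nM final) incubated 15 min before PD-1-Ig (20 nM final) and a further 15 min.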

T1 sequence (Q9NZQ7 with tags, fused parts or gaps): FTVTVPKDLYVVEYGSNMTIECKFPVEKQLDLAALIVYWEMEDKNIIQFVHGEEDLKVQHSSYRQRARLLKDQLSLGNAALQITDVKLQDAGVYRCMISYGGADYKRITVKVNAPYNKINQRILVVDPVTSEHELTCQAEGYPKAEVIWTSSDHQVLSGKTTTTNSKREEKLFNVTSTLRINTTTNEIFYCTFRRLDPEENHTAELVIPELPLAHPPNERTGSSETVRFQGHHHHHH

Structure (SMILES) | IC50 [nM]
CCCC[C@H]1C(=O)N(C)[C@@H](CCCC)C(=O)N[C@@H](CCCN)C(=O)N[C@H](C(=O)NCC(N)=O)CSCC(=O)N[C@@H](Cc2ccc(O)cc2)C(=O)N(C)[C@@H](C)C(=O)N[C@@H](CC(=O)O)C(=O)N2CCC[C@H]2C(=O)N[C@@H](Cc2cnc[nH]2)C(=O)N[C@@H](CCC(=O)O)C(=O)N2C[C@H](O)C[C@H]2C(=O)N[C@@H](Cc2c[nH]c3ccccc23)C(=O)N[C@@H](CO)C(=O)N[C@@H](Cc2cn(CC(=O)O)c3ccccc23)C(=O)N1C [Example 6269] ({CH2CO}-Y[NMeA]DPHE[Hyp]WS[Trp(1-CH2COOH)][NMeNle][NMeNle][Orn]CG-NH2; thioether N-14) | 10 to 99.9
CCCC[C@H]1C(=O)N(C)[C@@H](CCCC)C(=O)N[C@@H](CCC(=O)O)C(=O)N[C@H](C(=O)NCC(N)=O)CSCC(=O)N[C@@H](Cc2ccc(O)cc2)C(=O)N(C)[C@@H](C)C(=O)N[C@@H](CC(N)=O)C(=O)N2CCCC2C(=O)N[C@@H](Cc2cnc[nH]2)C(=O)N[C@@H](CCC(N)=O)C(=O)N2C[C@H](O)C[C@H]2C(=O)N[C@@H](Cc2c[nH]c3ccccc23)C(=O)N[C@@H](CCN)C(=O)N[C@@H](Cc2cn(CC(=O)O)c3ccccc23)C(=O)N1C (some centres unmarked) [Example 6288] ({CH2CO}-Y[NMeA]N[ξP]HQ[Hyp]W[Dab][Trp(1-CH2COOH)][NMeNle][NMeNle]ECG-NH2; thioether N-14) | 1 to 9.9
CCCC[C@H]1C(=O)N(C)[C@@H](CCCC)C(=O)N[C@@H](CCC(=O)O)C(=O)N[C@H](C(=O)NCC(N)=O)CSCC(=O)N[C@@H](Cc2ccc(O)cc2)C(=O)N(C)[C@@H](C)C(=O)N[C@@H](CC(=O)O)C(=O)N2CCC[C@H]2C(=O)N[C@@H](CN)C(=O)N[C@@H](CCC(N)=O)C(=O)N2C[C@H](O)C[C@H]2C(=O)N[C@@H](Cc2c[nH]c3ccccc23)C(=O)N[C@@H](CO)C(=O)N[C@@H](Cc2cn(CC(=O)O)c3ccccc23)C(=O)N1C [Example 6289] ({CH2CO}-Y[NMeA]DP[Dap]Q[Hyp]WS[Trp(1-CH2COOH)][NMeNle][NMeNle]ECG-NH2; thioether N-14) | 1 to 9.9
CCCC[C@H]1C(=O)N(C)[C@@H](CCCC)C(=O)N[C@@H](CCN)C(=O)N[C@H](C(=O)NCC(N)=O)CSCC(=O)N[C@@H](Cc2ccc(O)cc2)C(=O)N(C)[C@@H](C)C(=O)N[C@@H](CC(N)=O)C(=O)N2CCC[C@H]2C(=O)N[C@@H](Cc2cnc[nH]2)C(=O)N[C@@H](CCC(N)=O)C(=O)N2C[C@H](O)C[C@H]2C(=O)N[C@@H](Cc2c[nH]c3ccccc23)C(=O)N[C@@H](CCN)C(=O)N[C@@H](Cc2cn(CC(=O)O)c3ccccc23)C(=O)N1C [Example 6293] ({CH2CO}-Y[NMeA]NPHQ[Hyp]W[Dab][Trp(1-CH2COOH)][NMeNle][NMeNle][Dab]CG-NH2; thioether N-14) | 1 to 9.9
CCCC[C@H]1C(=O)N(C)[C@@H](CCCC)C(=O)N[C@@H](CC(C)C)C(=O)N[C@H](C(=O)NCC(N)=O)CSCC(=O)N[C@@H](Cc2ccc(O)cc2)C(=O)N(C)[C@@H](C)C(=O)N[C@@H](CC(N)=O)C(=O)N2CCC[C@H]2C(=O)N[C@@H](CN)C(=O)N[C@@H](CC(C)C)C(=O)N2C[C@H](O)C[C@H]2C(=O)N[C@@H](Cc2c[nH]c3ccccc23)C(=O)N[C@@H](CCCCN)C(=O)N[C@@H](Cc2cn(CC(=O)O)c3ccccc23)C(=O)N1C [Example 6296] ({CH2CO}-Y[NMeA]NP[Dap]L[Hyp]WK[Trp(1-CH2COOH)][NMeNle][NMeNle]LCG-NH2; thioether N-14) | 1 to 9.9
CCCC[C@H]1C(=O)N(C)[C@@H](CCCC)C(=O)N[C@@H](CCCCN)C(=O)N[C@H](C(=O)NCC(N)=O)CSCC(=O)N[C@@H](Cc2ccc(O)cc2)C(=O)N(C)[C@@H](C)C(=O)N[C@@H](CC(N)=O)C(=O)N2CCC[C@H]2C(=O)N[C@@H](Cc2cnc[nH]2)C(=O)N[C@@H](CCC(=O)O)C(=O)N2C[C@H](O)C[C@H]2C(=O)N[C@@H](Cc2c[nH]c3ccccc23)C(=O)N[C@@H](CO)C(=O)N[C@@H](Cc2cn(CC(=O)O)c3ccccc23)C(=O)N1C [Example 6297] ({CH2CO}-Y[NMeA]NPHE[Hyp]WS[Trp(1-CH2COOH)][NMeNle][NMeNle]KCG-NH2; thioether N-14) | 1 to 9.9

Second part, the molecule after the results:

IC50 [nM] | Structure (SMILES)
1 to 9.9 | CCCC[C@H]1C(=O)N(C)[C@@H](CCCC)C(=O)N[C@@H](CCC(=O)O)C(=O)N[C@H](C(=O)NCC(N)=O)CSCC(=O)N[C@@H](Cc2ccc(O)cc2)C(=O)N(C)[C@@H](C)C(=O)N[C@@H](CC(N)=O)C(=O)N2CCC[C@H]2C(=O)N[C@@H](Cc2cnc[nH]2)C(=O)N[C@@H](CCCN)C(=O)N2C[C@H](O)C[C@H]2C(=O)N[C@@H](Cc2c[nH]c3ccccc23)C(=O)N[C@@H](CCCCN)C(=O)N[C@@H](Cc2cn(CC(=O)O)c3ccccc23)C(=O)N1C [Example 6267] ({CH2CO}-Y[NMeA]NPH[Orn][Hyp]WK[Trp(1-CH2COOH)][NMeNle][NMeNle]ECG-NH2; thioether N-14)
1 to 9.9 | CCCC[C@H]1C(=O)N(C)[C@@H](CCCC)C(=O)N[C@@H](CC(C)C)C(=O)N[C@H](C(=O)NCC(N)=O)CSCC(=O)N[C@@H](Cc2ccc(O)cc2)C(=O)N(C)[C@@H](C)C(=O)N[C@@H](CC(N)=O)C(=O)N2CCC[C@H]2C(=O)N[C@@H](CN)C(=O)N[C@@H](CC(C)C)C(=O)N2CCC[C@H]2C(=O)N[C@@H](Cc2c[nH]c3ccccc23)C(=O)N[C@@H](CCN)C(=O)N[C@@H](Cc2ccc(O)cc2)C(=O)N1C [Example 6272] ({CH2CO}-Y[NMeA]NP[Dap]LPW[Dab]Y[NMeNle][NMeNle]LCG-NH2; thioether N-14)
1 to 9.9 | CCCC[C@H]1C(=O)N(C)[C@@H](CCCC)C(=O)N[C@@H](CO)C(=O)N[C@H](C(=O)NCC(N)=O)CSCC(=O)N[C@@H](Cc2ccc(O)cc2)C(=O)N(C)[C@@H](C)C(=O)N[C@@H](CC(=O)O)C(=O)N2CCC[C@H]2C(=O)N[C@@H](CO)C(=O)N[C@@H](CC(C)C)C(=O)N2C[C@H](O)C[C@H]2C(=O)N[C@@H](Cc2c[nH]c3ccccc23)C(=O)N[C@@H](CO)C(=O)N[C@@H](Cc2cn(CC(=O)O)c3ccccc23)C(=O)N1C [Example 6274] ({CH2CO}-Y[NMeA]DPSL[Hyp]WS[Trp(1-CH2COOH)][NMeNle][NMeNle]SCG-NH2; thioether N-14)
1 to 9.9 | CCCC[C@H]1C(=O)N(C)[C@@H](CCCC)C(=O)N[C@@H](CC(C)C)C(=O)N[C@H](C(=O)NCC(N)=O)CSCC(=O)N[C@@H](Cc2ccc(O)cc2)C(=O)N(C)[C@@H](C)C(=O)N[C@@H](CC(=O)O)C(=O)N2CCC[C@H]2C(=O)N[C@@H](Cc2cnc[nH]2)C(=O)N[C@@H](CCC(=O)O)C(=O)N2C[C@H](O)C[C@H]2C(=O)N[C@@H](Cc2c[nH]c3ccccc23)C(=O)N[C@@H](CO)C(=O)N[C@@H](Cc2cn(CC(=O)O)c3ccccc23)C(=O)N1C [Example 6276] ({CH2CO}-Y[NMeA]DPHE[Hyp]WS[Trp(1-CH2COOH)][NMeNle][NMeNle]LCG-NH2; thioether N-14)
1 to 9.9 | CCCC[C@H]1C(=O)N(C)[C@@H](CCCC)C(=O)N[C@@H](CC(C)C)C(=O)N[C@H](C(=O)NCC(N)=O)CSCC(=O)N[C@@H](Cc2ccc(O)cc2)C(=O)N(C)[C@@H](C)C(=O)N[C@@H](CC(=O)O)C(=O)N2CCC[C@H]2C(=O)N[C@@H](CN)C(=O)N[C@@H](CC(C)C)C(=O)N2CCC[C@H]2C(=O)N[C@@H](Cc2c[nH]c3ccccc23)C(=O)N[C@@H](CCN)C(=O)N[C@@H](Cc2cn(CC(=O)O)c3ccccc23)C(=O)N1C [Example 6283] ({CH2CO}-Y[NMeA]DP[Dap]LPW[Dab][Trp(1-CH2COOH)][NMeNle][NMeNle]LCG-NH2; thioether N-14)
